In paper PMC6356765, “Nepafenac-Loaded Cyclodextrin/Polymer Nanoaggregates: A New Approach to Eye Drop Formulation” (Materials, 2019):

What was measured:
[1] = system: human cornea epithelial cell line; set-up: method as in PMID 9706061; details: cited from earlier work
[2] = set-up: method as in PMID 27513223, PMID 18500088, PMID 17189793, PMID 28493461; details: powdered form; cited from earlier work
[3] = Chemical stability of nepafenac in 1% w/v γCD solution after heating by sonication; type: physicochemical; details: for Mean (± SD) Nepafenac Concentration: aqueous 1% w/v γCD, n = 3
Protocol: The chemical stability of nepafenac was determined in aqueous solution containing 1% w/v γCD following heating by sonication. The solution was shaken for 24 h until the drug was completely dissolved and then passed through a 0.45 µm membrane filter. The solution was then divided between four sealed vials. Vial 1 was used as a blank. Vials 2, 3 and 4 were heated in a sonicator at 60 °C for 20, 40 and 60 min, respectively. Drug concentrations were determined by HPLC.
The HPLC assay was performed using a reverse-phase ultra-high-performance liquid chromatography (UHPLC) Ultimate 3000 series system (Dionex Softron GmbH, Germering, Germany) consisting of a LPG-3400SD pump (Dionex, Germering, Germany) with a built-in degasser, WPS-3000 autosampler (Dionex, Germering, Germany), TCC-3100 column compartment (Dionex, Germering, Germany) and CoronaR ultra RS detector (Dionex, Germering, Germany). During the stationary phase, a Phenomenex Kinetex C18 column (150 × 4.6 mm, 5 µm) with matching HPLC Security Guard (Phenomenex, Cheshire, UK) was used. The mobile phase used a mixture of acetonitrile and water (50:50). The flow rate was 1 mL/min, the column oven temperature was ±25 °C and the detection wave length was set to 254 nm. The retention time for nepafenac under these conditions was 2.3 min.

[4] = Phase solubility studies of nepafenac with cyclodextrins; type: physicochemical; details: pure 2.5% HPβCD, aqueous (Figure 2)
Protocol: The solubility of nepafenac in combination with different cyclodextrin concentrations was determined following heating by sonication. Firstly, an excess amount of nepafenac (approximately 5 mg) was added to aqueous solutions containing known concentrations of CDs (ranging up to 15% (w/v) for αCD, γCD, HPαCD, HPβCD, HPγCD and 1.5% (w/v) for βCD) in pure water. The drug suspensions were saturated with nepafenac and heated in a sonicator in sealed vials at 60 °C for 60 min, before being allowed to cool to room temperature. Then, a small amount of solid nepafenac (approximately 2 mg) was added to each suspension to produce drug precipitation. Vials were resealed and placed in a shaker under constant agitation for 7 days. After reaching equilibrium, suspensions were filtered using 0.45 µm membrane filters, before being diluted in pure water and analysed by UHPLC. Determinations were made in triplicate. […]
The apparent stability constant (K1:1) according to the hypothesis of a 1:1 stoichiometric ratio of complexes was calculated using the following equation:(1) K1:1 = slope/S0(1−slope)
In addition, complexation efficiency (CE) was calculated. This factor can be calculated either from the slope of the phase solubility profile or from the ratio of the concentration of the drug/CD complex to free CD [52]:(2) CE=slope/(1−slope)=[Guess/CD complex]/[CD]

Row | Degradation of nepafenac on heating by sonication ([3]; CD aqueous solutions, sonicator heating) | Mean (± SD) Nepafenac Concentration ([3]; sonication 60 °C 20 min) [µg/mL] | Mean (± SD) Nepafenac Concentration ([3]; sonication 60 °C 40 min) [µg/mL] | Mean (± SD) Nepafenac Concentration ([3]; sonication 60 °C 60 min) [µg/mL] | Solubility of nepafenac [4] [µg/mL] | SMILES | Cytotoxic profile (ranking among CDs) [1] | Biopharmaceutical Classification System class [2]
1 | – | – | – | – | – | OC[C@H]1O[C@@H]2O[C@H]3[C@H](O)[C@@H](O)[C@@H](O[C@H]4[C@H](O)[C@@H](O)[C@@H](O[C@H]5[C@H](O)[C@@H](O)[C@@H](O[C@H]6[C@H](O)[C@@H](O)[C@@H](O[C@H]7[C@H](O)[C@@H](O)[C@@H](O[C@H]8[C@H](O)[C@@H](O)[C@@H](O[C@H]9[C@H](O)[C@@H](O)[C@@H](O[C@H]1[C@H](O)[C@H]2O)O[C@@H]9CO)O[C@@H]8CO)O[C@@H]7CO)O[C@@H]6CO)O[C@@H]5CO)O[C@@H]4CO)O[C@@H]3CO [γCD, γ-cyclodextrin] | least cytotoxic profile | –
2 | no degradation | 6.41 ± 0.08 | 6.49 ± 0.07 | 6.57 ± 0.08 | 850 | NC(=O)Cc1cccc(C(=O)c2ccccc2)c1N [Nepafenac, 2-amino-3-benzoylbenzeneacetamide] | – | class IV
